Target: T1, nanoKAZ luciferase (Oplophorus gracilirostris, UniProt Q9GV45, A31E/A60N/A81I/F95D/I117V/K70R/L54V/L99Q/M102K/N193R/P142E/Q151K/Q38R/Q45L/V71I/Y165I)
T1 construct: luciferase catalytic domain (nanoKAZ, 19 kDa) from the Oplophorus-derived luciferase; host or cells: cell-free: 1-Step Human Coupled IVT Kit, pT7CFE1-based vector
Test: In vitro bioluminescence screening of imidazo[1,2-a]pyrazin-3(7H)-ones with nanoKAZ expressed in vitro (96-well luminometer, 2 h kinetic)
Assay type: biochemical
Settings: furimazine = 1
Procedure: General protocol for the generation of solutions of imidazo[1,2-a]pyrazin-3(7H)-one Q by acidic hydrolysis of imidazo[1,2-a]pyrazin-3-yl acetate derivatives P. The considered acetate P (1 mg) was dissolved in DMSO (0.2 mL) and then diluted by adding a solution of acidic ethanol (0.3 ml) made from the addition of 37% hydrochloric acid (100 μl) on 100% ethanol (12 mL). This 0.5 mL solution was incubated at 50° C. for 2 hours to give a stock solution which was then stored at −80° C. […] Nota: these conditions are only adapted to the hydrolysis of the protecting group (as defined above) of the oxygen on position 2 of the imidazo[1,2-a]pyrazine ring system and not to the hydrolysis of any additional acetyl groups eventually present elsewhere on the substrate of this reaction.
The representative bioluminescence curves shown in the FIG. 2 provided an assessment for furimazine (Q-1), 8-benzyl-2-(furan-2-ylmethyl)-6-(4-hydroxyphenyl)imidazo[1,2-a]pyrazin-3 (7/1)-one (Q-80), 8-(2-fluorobenzyl)-2-(furan-2-ylmethyl)-6-phenylimidazo[1,2-a]pyrazin-3(7H)-one (Q-84), and 8-(2-fluorobenzyl)-2-((5-methylfuran-2-yl)methyl)-6-phenylimidazo[1,2-a]pyrazin-3(7H)-one (Q-85) was obtained using a luciferase expressed in vitro as described in the following. The nanoKAZ DNA template was cloned into Thermo Scientific pT7CFE1-based vector and nanoKAZ was expressed using ThermoFisher Scientific 1-Step Human Coupled IVT Kit—DNA (ref. 88881) according to the manufacturer instructions. The resulting reaction mix was diluted 400 times in buffer (DPBS (Gibco)+0.1% (v/v) Tween 20) and conserved at −80° C. The screening of the imidazo[1,2-a]pyrazin-3(7H)-ones was performed in 96 well plates using 50 μL/well of a 1/20 dilution in DPBS (Gibco)+0.1% (v/v) Tween 20 of the nanoKAZ solution.
To illustrate the bioluminescence properties improvement achieved for many of the imidazo[1,2-a]pyrazin-3(7H)-ones described here, four values are provided in Table 1: maximum intensity (V1), signal half-life (V2), area under the curve for ten minutes (V3), and area under the curve for two hours (V4), normalized using furimazine (Q-1) as a reference.
The bioluminescence properties of the tested compounds are considered to be improved when at least one of the values V1-V4 is above 1, and when none of the V1-V4 values is 0.05 or below.
By following the hydrolysis protocol described above, the following imidazo[1,2-a]pyrazin-3(7H)-ones luciferins Q were made in situ from the corresponding O-protected imidazo[1,2-a]pyrazines P and evaluated for their bioluminescence properties (maximum intensity (V1), signal half-life (V2), area under the curve for […], normalized using furimazine (Q-1) as a reference): […]

[1] = second table, luciferins made in situ from O-protected P

T1 sequence (Q9GV45 other isoform, or with tags, fused parts or gaps with the stated changes): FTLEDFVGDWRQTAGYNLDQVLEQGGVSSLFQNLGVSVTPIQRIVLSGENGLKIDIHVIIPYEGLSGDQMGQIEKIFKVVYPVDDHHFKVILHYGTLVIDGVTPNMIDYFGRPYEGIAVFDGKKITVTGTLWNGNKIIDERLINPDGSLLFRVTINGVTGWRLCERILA

CCc1ccc(Cc2nc3c(Cc4ccccc4)[nH]c(-c4ccccc4)cn-3c2=O)s1 [Q-58, 8-benzyl-2-((5-ethylthiophen-2-yl)methyl)-6-phenylimidazo[1,2-a]pyrazin-3(7H)-one]
V1: maximum intensity, normalized using furimazine (Q-1) as a reference (Table 1): 1.71
V3: area under the curve for ten minutes, normalized using furimazine (Q-1) as a reference (Table 1): 1.61
V4: area under the curve for two hours, normalized using furimazine (Q-1) as a reference (Table 1): 0.69

Cc1ccc(Cc2nc3c(Cc4ccccc4Cl)[nH]c(-c4ccccc4)cn-3c2=O)o1 [Q-98, 8-(2-chlorobenzyl)-2-((5-methylfuran-2-yl)methyl)-6-phenylimidazo[1,2-a]pyrazin-3(7H)-one]
V1: maximum intensity, normalized using furimazine (Q-1) as a reference (Table 1): 1.18
V3: area under the curve for ten minutes, normalized using furimazine (Q-1) as a reference (Table 1): 1.28
V4: area under the curve for two hours, normalized using furimazine (Q-1) as a reference (Table 1): 1.20

O=c1c(Cc2ccco2)nc2c(Cc3cccc(F)c3F)[nH]c(-c3ccccc3)cn1-2 [Q-107, 8-(2,3-difluorobenzyl)-2-(furan-2-ylmethyl)-6-phenylimidazo[1,2-a]pyrazin-3(7H)-one]
V3: area under the curve for 2 hours, normalized using furimazine (Q-1) as a reference (second table): 1.04
V4: area under the curve for ten minutes, normalized using furimazine (Q-1) as a reference (second table): 1.27
V1: maximum intensity, normalized using furimazine (Q-1) as a reference [1]: 1.03

Cc1cc(Cc2nc3c(Cc4ccccc4)[nH]c(-c4ccccc4)cn-3c2=O)oc1C [Q-16, 8-benzyl-2-((4,5-dimethylfuran-2-yl)methyl)-6-phenylimidazo[1,2-a]pyrazin-3(7H)-one]
V1: maximum intensity, normalized using furimazine (Q-1) as a reference (Table 1): 2.07
V3: area under the curve for ten minutes, normalized using furimazine (Q-1) as a reference (Table 1): 1.88
V4: area under the curve for two hours, normalized using furimazine (Q-1) as a reference (Table 1): 0.93

CCc1ccc(Cc2nc3c(Cc4ccccc4)[nH]c(-c4ccccc4)cn-3c2=O)o1 [Q-12, 8-benzyl-2-((5-ethylfuran-2-yl)methyl)-6-phenylimidazo[1,2-a]pyrazin-3(7H)-one]
V1: maximum intensity, normalized using furimazine (Q-1) as a reference (Table 1): 2.28
V3: area under the curve for ten minutes, normalized using furimazine (Q-1) as a reference (Table 1): 2.2
V4: area under the curve for two hours, normalized using furimazine (Q-1) as a reference (Table 1): 1.28

Cc1ccc(Cc2nc3c(Cc4ccccc4)[nH]c(-c4ccccc4F)cn-3c2=O)o1 [Q-34, 8-benzyl-6-(2-fluorophenyl)-2-((5-methylfuran-2-yl)methyl)imidazo[1,2-a]pyrazin-3(7H)-one]
V1: maximum intensity, normalized using furimazine (Q-1) as a reference (Table 1): 2.17
V3: area under the curve for ten minutes, normalized using furimazine (Q-1) as a reference (Table 1): 1.89
V4: area under the curve for two hours, normalized using furimazine (Q-1) as a reference (Table 1): 1.13

CCc1oc(Cc2nc3c(Cc4cccc(F)c4F)[nH]c(-c4ccccc4)cn-3c2=O)cc1C [Q-143, 8-(2,3-difluorobenzyl)-2-((5-ethyl-4-methylfuran-2-yl)methyl)-6-phenylimidazo[1,2-a]pyrazin-3(7H)-one]
V3: area under the curve for 2 hours, normalized using furimazine (Q-1) as a reference (second table): 0.39
V4: area under the curve for ten minutes, normalized using furimazine (Q-1) as a reference (second table): 1.34
V1: maximum intensity, normalized using furimazine (Q-1) as a reference [1]: 1.43

O=c1c(Cc2ccco2)nc2c(Cc3ccccc3)[nH]c(-c3ccc(O)cc3)cn1-2 [Q-80, 8-benzyl-2-(furan-2-ylmethyl)-6-(4-hydroxyphenyl)imidazo[1,2-a]pyrazin-3(7H)-one, reference compound]
V1: maximum intensity, normalized using furimazine (Q-1) as a reference (Table 1): 3.06
V3: area under the curve for ten minutes, normalized using furimazine (Q-1) as a reference (Table 1): 0.79
V4: area under the curve for two hours, normalized using furimazine (Q-1) as a reference (Table 1): 0.14

Cc1cccc(Cc2nc3c(Cc4ccccc4F)[nH]c(-c4ccccc4)cn-3c2=O)c1 [Q-82, 8-(2-fluorobenzyl)-2-(3-methylbenzyl)-6-phenylimidazo[1,2-a]pyrazin-3(7H)-one]
V1: maximum intensity, normalized using furimazine (Q-1) as a reference (Table 1): 1.36
V3: area under the curve for ten minutes, normalized using furimazine (Q-1) as a reference (Table 1): 1.38
V4: area under the curve for two hours, normalized using furimazine (Q-1) as a reference (Table 1): 0.84

Cc1ccc(Cc2nc3c(Cc4cccc(F)c4F)[nH]c(-c4ccccc4)cn-3c2=O)o1 [Q-108, 8-(2,3-difluorobenzyl)-2-((5-methylfuran-2-yl)methyl)-6-phenylimidazo[1,2-a]pyrazin-3(7H)-one]
V3: area under the curve for 2 hours, normalized using furimazine (Q-1) as a reference (second table): 3.09
V4: area under the curve for ten minutes, normalized using furimazine (Q-1) as a reference (second table): 2.1
V1: maximum intensity, normalized using furimazine (Q-1) as a reference [1]: 3.15

From patent US12612411B1, “Imidazopyrazine derivatives, process for preparation thereof, and their uses as luciferins” (INSTITUT PASTEUR, priority 2017, dated 2026)
